Laboratory results published in paper doi:10.1101/2025.09.30.679465v1, “Large-Scale Structure-Based Virtual Screening Identifies Diverse KNa1.1 (KCNT1) Potassium Channel Inhibitors” (biorxiv, 2025).
Where a chain is given by its changes, count along the chain named.

Target: T1, KNa1.1 WT/Y796H (Homo sapiens, UniProt Q5JUK3, Y796H)
T1 construct: gene KCNT1; full-length WT KNa1.1 and Y796H KNa1.1 subunits joined by self-cleaving T2A linker in pcDNA6
T1 sequence (Q5JUK3 1-1230): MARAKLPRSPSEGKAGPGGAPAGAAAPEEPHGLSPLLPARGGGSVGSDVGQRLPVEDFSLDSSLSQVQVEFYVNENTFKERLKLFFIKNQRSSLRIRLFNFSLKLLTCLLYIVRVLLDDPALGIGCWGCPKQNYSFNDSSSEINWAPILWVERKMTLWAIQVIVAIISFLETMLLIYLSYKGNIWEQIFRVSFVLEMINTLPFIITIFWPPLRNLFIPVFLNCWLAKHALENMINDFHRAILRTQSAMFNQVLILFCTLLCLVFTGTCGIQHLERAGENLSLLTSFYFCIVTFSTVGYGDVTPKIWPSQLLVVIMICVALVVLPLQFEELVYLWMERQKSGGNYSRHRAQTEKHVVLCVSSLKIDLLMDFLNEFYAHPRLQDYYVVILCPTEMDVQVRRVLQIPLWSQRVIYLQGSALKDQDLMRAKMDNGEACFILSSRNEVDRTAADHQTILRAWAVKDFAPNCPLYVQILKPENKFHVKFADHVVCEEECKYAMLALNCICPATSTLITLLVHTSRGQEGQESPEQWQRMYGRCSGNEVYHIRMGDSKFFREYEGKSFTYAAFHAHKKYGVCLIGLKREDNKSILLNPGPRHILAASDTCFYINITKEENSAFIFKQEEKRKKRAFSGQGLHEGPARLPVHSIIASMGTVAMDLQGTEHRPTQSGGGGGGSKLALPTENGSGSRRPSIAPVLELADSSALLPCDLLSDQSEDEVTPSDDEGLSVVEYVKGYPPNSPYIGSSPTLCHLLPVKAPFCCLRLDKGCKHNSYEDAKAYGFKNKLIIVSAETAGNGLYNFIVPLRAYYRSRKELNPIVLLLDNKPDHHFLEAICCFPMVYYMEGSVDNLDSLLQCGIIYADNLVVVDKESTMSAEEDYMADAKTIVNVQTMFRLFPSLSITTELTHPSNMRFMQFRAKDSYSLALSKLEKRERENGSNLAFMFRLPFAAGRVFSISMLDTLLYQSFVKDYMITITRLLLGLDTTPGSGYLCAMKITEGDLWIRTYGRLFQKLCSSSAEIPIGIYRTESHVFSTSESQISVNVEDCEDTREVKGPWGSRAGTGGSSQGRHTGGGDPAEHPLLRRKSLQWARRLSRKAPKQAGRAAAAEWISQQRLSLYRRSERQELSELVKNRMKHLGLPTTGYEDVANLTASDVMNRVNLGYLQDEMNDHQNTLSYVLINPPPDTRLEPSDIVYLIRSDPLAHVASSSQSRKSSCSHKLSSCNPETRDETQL
T1 sequence (Q5JUK3 1-1230 Y796H): T1 sequence (Q5JUK3 1-1230) with Y796H
Assay: thallium flux (Thallos AM), HEK293
Format: cell-based
Text: thallium flux (Thallos AM), HEK293 on KNa1.1 WT/Y796H

## CC(c1ccccc1)N1CCCN(c2cccc(NC(=O)Nc3cccc(Cl)c3)c2)C1=O (stereo not shown) [compound 1, Cpd1]
  IC50: 4.7 µM
